Reference: PMC6747274, “Multifunctional Peptides from Spanish Dry-Cured Pork Ham: Endothelial Responses and Molecular Modeling Studies” (International Journal of Molecular Sciences, 2019)
Where no end group is shown, it is not given here.

Legend:
[1] = tested on: VCAM-1 mRNA, EA.hy926 cells; test: VCAM-1 mRNA expression by RT-PCR in EA.hy926 cells; format: cell-based, human; conditions: 300 µM peptide 16 h, then 100 ng/mL TNF-α 6 h; p = 0.01 (BP2), 0.03 (BP3), 0.02 (BP4)
Experimental: EA.hy926 cells, the hybrid human umbilical vein endothelial cell line, were obtained from the American Type Culture Collection (ATCC® CRL2922™, Rockville, MD, USA). Cells were cultured in high glucose Dulbecco’s Modified Eagle’s Medium (DMEM), containing 10% heat-inactivated fetal bovine serum (FBS, Biowest, Riverside, CA, USA) and 50 U/mL of penicillin and 50 µg/mL streptomycin (Sigma Aldrich Chemical Co., Saint Louis, MO, USA). Cells were grown in 5% CO2 in a humidified air incubator at 37 °C. Subculture was performed when 90% confluence was reached.
(§1) EA.hy926 were seeded in six-well plates at 0.25 × 10^6 cells/well in DMEM supplemented with 5% FBS. Cells were treated with 300 µM of each peptide for 16 h. Then, 100 ng/mL TNF-α or 300 µM H2O2 were added for an additional 6 h or 24 h, respectively.
Total RNA was extracted from EA.hy926 cells using 300 µL Trisure™ (Bioline, Taunton, MA, USA) reagent and Direct-zol™ RNA MiniPrep (Zymo Research Irvine, Irvine, CA, USA) according to the manufacturer’s protocol. Total RNA was reverse-transcribed into complementary DNA (Sensifast cDNATM Synthesis kit, Bioline, Taunton, MA, USA). The mRNA levels of the target genes were quantified by RT-PCR using SensiFAST SYBER Hi-ROX Kit (Bioline, Taunton, MA, USA) with StepOnePlus Real-Time PCR System (Applied Biosystems, Foster City, CA, USA). Briefly, 5 µL of 1:5 diluted cDNA was added to the qPCR reaction containing 10 μL 2X SensiFAST Mix and 400 nM of each primer in a total volume of 20 μL.
Specific and validated primers for human glyceraldehyde-3-phosphate dehydrogenase (GADPH), intercellular adhesion marker-1 (ICAM-1), vascular cell adhesion marker-1 (VCAM-1), endothelial nitric oxide synthase (eNOS), interleukin 6 (IL-6), catalase, SOD (Super Oxide Dismutase), NADPH (Nicotinamide Adenine Dinucleotide Phosphate oxidase) and Bax (proapoptosis regulator) genes were used (Sigma-Aldrich Chemical Co., Saint Louis, MO, USA). […]
The relative quantification of gene expression was determined by the comparative fold change […] method. […]

EA.hy926 cells = test: Annexin V / propidium iodide apoptosis and necrosis by FACS; format: cell-based, human; conditions: preincubation with 300 µM peptide, then 300 µM H2O2; three independent experiments, mean ± SD; NS vs H2O2 alone
Experimental: as §1
ApoScreen Annexin V Apoptosis Kit-FITC (Southern Biotech, Birmingham, AL, USA) was used to detect the apoptosis rate. After the co-incubation of synthetic peptides and 300 µM H2O2, 0.4 × 10^6 cells were detached and washed in cold PBS, then resuspended in 100 µL Annexin V binding buffer and treated following the manufacturer’s protocol. Annexin V-fluorescein isothiocyanate (FITC) binding was assessed in FL1 channel simultaneously with propidium iodide (FL2 channel). This test discriminates among intact cells (FITC−/PI−), apoptotic cells (FITC+/PI−), and necrotic cells (FITC+/PI+). Assays were performed in triplicate (Table S1).

NF-κB, EA.hy926 cells = test: NF-κB dual luciferase reporter assay; format: cell-based, human; conditions: 300 µM peptide 16 h, then 50 ng/mL TNF-α 6 h
Experimental: To evaluate whether the synthetic peptides could modulate the NF-κB biological activity, a luciferase reporter assay was carried out, using the Renilla reporter as a specificity control and indicator of cell proliferation. In this study, NF-B activity was induced at a lower concentration of TNF-α (50 ng/mL) because of the high sensitivity of the approach. The normalized firefly/Renilla luciferase activity was reduced by around 25% of the activity when cells were pretreated with the BP1 (p = 0.002), BP2 (p = 0.003), and BP3 (p = 0.003) synthetic peptides (Figure 3). […] The basal activity for NF-κB was not inhibited by synthetic peptides without TNF-α stimulation (data not shown).
The dual luciferase assay has been widely used in cell lines to rapidly and accurately determine the activity of the promoter of NF-κB. […]
For luciferase reporter assays, 80,000 cells/well were seeded in 24-well plates overnight, followed by cotransfection with 0.5 μg pNF-κB:Luc/pRL-CMV at a ratio of 10:1 using 1.5 μL trans-it X2 reagent (Myrus®, Madison, WI, USA). […] NF-κB-dependent firefly luciferase activity and NF-κB-independent Renilla luciferase activity were assessed using Dual-Luciferase® Reporter Assay System (Promega, Madison, WI, USA) in a Luminometer Optocomp I (MGM Instruments). […]

human ACE = human ACE (Homo sapiens, UniProt P12821); test: Human ACE inhibition assay (lysate of ACE-transfected EA.hy926 cells, HHL substrate, HPLC)
Sequence of human ACE (P12821 30-1306): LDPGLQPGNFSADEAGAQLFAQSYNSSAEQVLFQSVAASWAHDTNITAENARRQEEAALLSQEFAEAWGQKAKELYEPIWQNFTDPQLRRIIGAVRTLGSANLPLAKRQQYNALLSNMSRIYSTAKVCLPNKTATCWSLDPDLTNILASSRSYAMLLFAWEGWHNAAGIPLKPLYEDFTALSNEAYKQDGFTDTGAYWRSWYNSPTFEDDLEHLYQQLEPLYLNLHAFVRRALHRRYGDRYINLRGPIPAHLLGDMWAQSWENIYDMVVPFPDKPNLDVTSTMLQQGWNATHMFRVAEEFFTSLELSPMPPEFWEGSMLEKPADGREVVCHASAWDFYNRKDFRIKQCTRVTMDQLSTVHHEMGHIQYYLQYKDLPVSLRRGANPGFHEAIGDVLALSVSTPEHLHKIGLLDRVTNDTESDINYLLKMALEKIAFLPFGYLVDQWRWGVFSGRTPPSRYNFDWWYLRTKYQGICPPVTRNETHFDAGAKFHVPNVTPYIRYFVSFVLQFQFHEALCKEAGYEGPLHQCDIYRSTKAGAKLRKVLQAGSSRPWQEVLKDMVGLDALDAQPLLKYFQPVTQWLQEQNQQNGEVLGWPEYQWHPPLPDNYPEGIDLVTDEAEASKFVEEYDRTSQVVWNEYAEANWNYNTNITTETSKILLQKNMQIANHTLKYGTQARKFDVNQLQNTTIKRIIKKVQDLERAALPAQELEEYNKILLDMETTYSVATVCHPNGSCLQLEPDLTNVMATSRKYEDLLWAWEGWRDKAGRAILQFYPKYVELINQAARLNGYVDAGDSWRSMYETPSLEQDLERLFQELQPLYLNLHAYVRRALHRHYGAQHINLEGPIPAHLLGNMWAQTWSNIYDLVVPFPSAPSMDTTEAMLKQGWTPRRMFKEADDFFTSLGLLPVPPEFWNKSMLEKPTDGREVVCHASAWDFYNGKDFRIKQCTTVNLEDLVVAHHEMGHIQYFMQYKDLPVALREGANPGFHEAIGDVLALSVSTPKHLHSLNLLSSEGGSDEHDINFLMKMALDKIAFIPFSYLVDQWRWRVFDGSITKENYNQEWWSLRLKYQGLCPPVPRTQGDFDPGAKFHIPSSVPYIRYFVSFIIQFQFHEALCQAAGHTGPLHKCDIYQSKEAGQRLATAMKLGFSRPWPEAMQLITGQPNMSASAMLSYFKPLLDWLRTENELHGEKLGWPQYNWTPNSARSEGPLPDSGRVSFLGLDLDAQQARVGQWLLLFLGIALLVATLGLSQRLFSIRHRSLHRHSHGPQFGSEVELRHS

IC50 (human ACE) [µM] | Substance | VCAM-1 mRNA expression vs TNF-α stimulated cells [1] | Apoptosis (AnV+/PI-), % cells (EA.hy926 cells) [%] | Necrosis (AnV+/PI+), % cells (EA.hy926 cells) [%] | reduction of normalized firefly/Renilla NF-κB luciferase activity (NF-κB, EA.hy926 cells; vs TNF-α, p = 0.002 (BP1), 0.003 (BP2), 0.003 (BP3), three independent experiments) | NF-κB activation (in words) (NF-κB, EA.hy926 cells; BP4 p = 0.012)
> 1000 | KAAAATP [BP2] | downregulated | 14.47 ± 2.42 | 19.58 ± 0.18 | around 25% | –
> 1000 | AAATP [BP4] | downregulated | 12.16 ± 1.86 | 18.42 ± 6.34 | – | repressed by BP4 to a lesser degree
